Laboratory results from US20250154162A1, “COMPOUND FOR REGULATING AND CONTROLLING 15-PGDH ACTIVITY AND PREPARATION METHOD THEREFOR” (SCINNOHUB PHARMACEUTICAL CO., LTD., priority 2022, published 2025).

Experiments:
A549 cells = test: Assay of intracellular PGE2 up-regulatory activity; format: cell-based; conditions: Homo sapiens, IL-1β induced, 8 h, relative to positive control group; for activity at 0.3 µM: 300 nM compound, read-out: PGE2 upregulation rate at 300 nM compound concentration; for activity at 0.01 µM: 10 nM compound, read-out: PGE2 upregulation rate at 10 nM compound concentration
Method: • a) A549 cells were inoculated in the 24-well plate, and after cell adhesion, IL-1β was added thereto for 16 h of stimulation to induce COX2 expression and PGE2 production. • b) A solution of the compound to be tested was prepared with the culture medium and gradiently diluted to 3 concentrations of 10 nM, 300 nM and 10,000 nM or 7 concentrations of 0.64 nM, 3.2 nM, 16 nM, 80 nM, 400 nM, 2000 nM and 10,000 nM, and meanwhile the positive control group (only IL-1β was added to the cells for induction) and negative control group (only cells were added in the wells without any treatment) were set up. The cell supernatants were collected after 8 h of action, in which the positive control group was induced by IL-1β without treatment of the compounds, and the negative control group was neither stimulated by IL-1β, nor treated with the compounds. • c) The PGE2 content of the samples was determined by Prostaglandin E2 Kit, and the fluorescence signal was detected by a multifunctional microplate reader (Ex/Em=337/620, 337/665).
• a) A standard curve was plotted with the PGE2 standard in the Prostaglandin E2 Kit, and the PGE2 concentration was calculated by substituting with the fluorescence signal of the sample. • b) The PGE2 upregulation rate % was calculated by using the following formula: • PGE2 upregulation rate %=(PGE2 concentration of sample group/PGE2 concentration of positive control group)×100%.

15-PGDH = 15-PGDH (Homo sapiens (Human), UniProt P15428); test: Detection of 15-PGDH enzyme activity; format: biochemical; conditions: 15-PGDH enzyme inhibitory activity; substrates β-NAD and PGF2α
Excerpt: The formula was shown below: Y=Bottom+(Top-Bottom)/(1+10∧((LogIC50−X)*HillSlope)), wherein X is a log value of a concentration of the compound, and Y is inhibition rate %.

Sequence of 15-PGDH (P15428 whole entry): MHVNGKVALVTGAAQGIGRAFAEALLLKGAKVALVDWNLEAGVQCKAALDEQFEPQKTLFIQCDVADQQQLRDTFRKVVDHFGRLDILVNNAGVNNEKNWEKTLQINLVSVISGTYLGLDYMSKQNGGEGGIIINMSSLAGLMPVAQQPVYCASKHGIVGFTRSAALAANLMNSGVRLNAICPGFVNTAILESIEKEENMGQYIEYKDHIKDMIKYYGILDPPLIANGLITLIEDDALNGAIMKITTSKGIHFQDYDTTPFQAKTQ

Compound | IC50 (15-PGDH) [nM] | activity at 0.3 µM (A549 cells) [%] | activity at 0.01 µM (A549 cells) [%]
COc1cncc(-c2cnc3c(N)c(C(=O)N4CCCCC4)sc3n2)c1 [Example 45] | 0.5 to 3 | 347 | 177
Nc1c(C(=O)N2CCCCC2)sc2nc(-c3ccc4c(c3)OCO4)cnc12 [Example 43] | 3 to 10 | – | –
Nc1c(C(=O)N2CCCCC2)sc2nc(-c3cnc4[nH]ccc4c3)cnc12 [Example 29] | 0.5 to 3 | – | –
Cc1noc(C)c1-c1cnc2c(N)c(C(=O)N3CCCCC3)sc2n1 [Example 11] | 0.5 to 3 | – | 990
Nc1c(C(=O)N2CCCCC2)sc2nc(-c3ccc4nc[nH]c4c3)cnc12 [Example 40] | 0.5 to 3 | 315 | 233
Nc1c(C(=O)N2CCCCC2)sc2nc(-c3cncnc3)cnc12 [Example 6] | 0.5 to 3 | 450 | 412
Nc1ncc(-c2cnc3c(N)c(C(=O)N4CCCCC4)sc3n2)cn1 [Example 33] | < 0.5 | 754 | 393
Nc1c(C(=O)N2CCCCC2)sc2nc(-c3ccc4c(c3)OCCO4)cnc12 [Example 10] | 0.5 to 3 | 206 | –
CN1Cc2cc(-c3cnc4c(N)c(C(=O)N5CCCCC5)sc4n3)ccc2C1=O [Example 63] | 0.5 to 3 | 222 | –
CN1CCN(c2ncc(-c3cnc4c(N)c(C(=O)N5CCCCC5)sc4n3)cn2)CC1 [Example 28] | 0.5 to 3 | 318 | –
Nc1c(C(=O)N2CCCCC2)sc2nc(-c3c(Cl)cccc3Cl)cnc12 [Example 34] | 0.5 to 3 | – | –
Nc1c(C(=O)N2CCCCC2)sc2nc(-c3cncs3)cnc12 [Example 7] | 0.5 to 3 | 758 | 479
Nc1c(C(=O)N2CCCCC2)sc2nc(-c3ccnc(C(F)(F)F)c3)cnc12 [Example 37] | 3 to 10 | – | –
Nc1c(C(=O)N2CCCCC2)sc2nc(-c3ccc4nccnc4c3)cnc12 [Example 12] | 0.5 to 3 | 170 | –
Nc1c(C(=O)N2CCCCC2)sc2nc(-c3ccn[nH]3)cnc12 [Example 9] | 3 to 10 | – | –
Nc1c(C(=O)N2CCCCC2)sc2nc(-c3cnc(N4CCOCC4)nc3)cnc12 [Example 24] | < 0.5 | 310 | –

Compound | IC50 (15-PGDH) [nM] | activity at 0.3 µM (A549 cells) [%] | activity at 0.01 µM (A549 cells) [%]
Cn1ncc2cc(-c3cnc4c(N)c(C(=O)N5CCCCC5)sc4n3)ccc21 [Example 18] | 3 to 10 | – | –
CN(C)c1ncc(-c2cnc3c(N)c(C(=O)N4CCCCC4)sc3n2)cn1 [Example 25] | < 0.5 | 276 | –
Nc1c(C(=O)N2CCCCC2)sc2nc(-c3ccc(N4CCOCC4)nc3)cnc12 [Example 19] | 3 to 10 | – | –
Cn1ccc(-c2cnc3c(N)c(C(=O)N4CCCCC4)sc3n2)cc1=O [Example 42] | 0.5 to 3 | 204 | –
Cn1ccc2cc(-c3cnc4c(N)c(C(=O)N5CCCCC5)sc4n3)ccc2c1=O [Example 64] | 0.5 to 3 | 196 | 173
N#Cc1ccc(-c2cnc3c(N)c(C(=O)N4CCCCC4)sc3n2)cn1 [Example 47] | < 0.5 | 774 | 424
Nc1c(C(=O)N2CCCCC2)sc2nc(-c3cnc4[nH]ncc4c3)cnc12 [Example 41] | 3 to 10 | – | –
COc1ccc(-c2cnc3c(N)c(C(=O)N4CCCCC4)sc3n2)cn1 [Example 20] | 0.5 to 3 | – | –
Nc1cc(-c2cnc3c(N)c(C(=O)N4CCCCC4)sc3n2)ccn1 [Example 62] | 0.5 to 3 | – | –
COc1ncc(-c2cnc3c(N)c(C(=O)N4CCCCC4)sc3n2)cn1 [Example 60] | < 0.5 | – | –
Cn1cc(-c2cnc3c(N)c(C(=O)N4CCCCC4)sc3n2)cn1 [Example 48] | 10 to 25 | – | –
Nc1c(C(=O)N2CCCCC2)sc2nc(-c3ccc4ncsc4c3)cnc12 [Example 23] | < 0.5 | 375 | 254
Cn1ccc(-c2cnc3c(N)c(C(=O)N4CCCCC4)sc3n2)n1 [Example 8] | 3 to 10 | – | –
N#Cc1ncc(-c2cnc3c(N)c(C(=O)N4CCCCC4)sc3n2)cn1 [Example 44] | 3 to 10 | – | –
Cc1cc(-c2cnc3c(N)c(C(=O)N4CCCCC4)sc3n2)ccn1 [Example 30] | 0.5 to 3 | 341 | –

Now from value to compound, other results behind:

IC50 (15-PGDH) [nM] | Compound | activity at 0.3 µM (A549 cells) [%] | activity at 0.01 µM (A549 cells) [%]
< 0.5 | Nc1c(C(=O)N2CCCCC2)sc2nc(-c3ccnc(F)c3)cnc12 [Example 21] | 211 | –
0.5 to 3 | Nc1c(C(=O)N2CCCCC2)sc2nc(-c3cccs3)cnc12 [Example 5] | – | 451
> 5000 | Nc1c(C(=O)N2CC3(COC3)C2)sc2nc(-c3ccccc3)cnc12 [Example 59] | – | –
50 to 1000 | Nc1c(C(=O)N2CCC(F)(F)C2)sc2nc(-c3ccccc3)cnc12 [Example 50] | – | –
0.5 to 3 | Cc1ccc(-c2cnc3c(N)c(C(=O)N4CCCCC4)sc3n2)cn1 [Example 36] | 384 | 301
3 to 10 | Nc1c(C(=O)N2CCCCC2)sc2nc(-c3cccc4ccccc34)cnc12 [Example 61] | – | –
3 to 10 | Nc1c(C(=O)N2CCCCC2)sc2nc(-c3ccccc3)cnc12 [Example 1, (7-amino-3-phenylthieno[2,3-b]pyrazin-6-yl) (piperidin-1-yl) methanone] | – | –
0.5 to 3 | Nc1ccc(-c2cnc3c(N)c(C(=O)N4CCCCC4)sc3n2)cn1 [Example 13] | 207 | –
0.5 to 3 | Nc1c(C(=O)N2CCCCC2)sc2nc(-c3ccc4ccccc4c3)cnc12 [Example 35] | 231 | 208
0.5 to 3 | Nc1c(C(=O)N2CCCCC2)sc2nc(-c3ccc4ncccc4c3)cnc12 [Example 22] | 329 | 282
50 to 1000 | Nc1c(C(=O)N2CCC3(CC2)CC3)sc2nc(-c3ccccc3)cnc12 [Example 57] | – | –
50 to 1000 | CC1(C)CCN(C(=O)c2sc3nc(-c4ccccc4)cnc3c2N)CC1 [Example 56] | – | –
50 to 1000 | CN1CCN(C(=O)c2sc3nc(-c4ccccc4)cnc3c2N)CC1 [Example 52] | – | –
50 to 1000 | Nc1c(C(=O)N2CCc3ccccc3C2)sc2nc(-c3ccccc3)cnc12 [Example 54] | – | –
> 5000 | Nc1c(C(=O)N2CC[S+]([O-])CC2)sc2nc(-c3ccccc3)cnc12 [Example 58] | – | –
50 to 1000 | Nc1c(C(=O)N2CCOCC2)sc2nc(-c3ccccc3)cnc12 [Example 51] | – | –

IC50 (15-PGDH) [nM] | Compound | activity at 0.3 µM (A549 cells) [%] | activity at 0.01 µM (A549 cells) [%]
0.5 to 3 | Nc1c(C(=O)N2CCCCC2)sc2nc(-c3ccc(F)nc3)cnc12 [Example 46] | 251 | –
10 to 25 | Nc1c(C(=O)N2CCCCCC2)sc2nc(-c3ccccc3)cnc12 [Example 4] | – | –
0.5 to 3 | Nc1c(C(=O)N2CCCCC2)sc2nc(-c3ccncc3)cnc12 [Example 27] | – | –
10 to 25 | Nc1c(C(=O)N2CCSCC2)sc2nc(-c3ccccc3)cnc12 [Example 16] | – | –
0.5 to 3 | Nc1c(C(=O)N2CCCCC2)sc2nc(-c3ccc4ncoc4c3)cnc12 [Example 2, (7-amino-3-(benzo[d]oxazol-6-yl)thieno[2,3-b]pyrazin-6-yl) (piperidin-1-yl) methanone] | 348 | 200
10 to 25 | Nc1c(C(=O)N2CCC(F)CC2)sc2nc(-c3ccccc3)cnc12 [Example 3, (7-amino-3-phenylthieno[2,3-b]pyrazin-6-yl) (4-fluoropiperidin-1-yl) methanone] | – | –
0.5 to 3 | Cn1cc(-c2cnc3c(N)c(C(=O)N4CCCCC4)sc3n2)ccc1=O [Example 17] | – | –
0.5 to 3 | Nc1c(C(=O)N2CCCCC2)sc2nc(-c3ccc4nccn4c3)cnc12 [Example 15] | 168 | –
3 to 10 | Nc1c(C(=O)N2CCCCC2)sc2nc(-c3cccnc3)cnc12 [Example 32] | – | 530
0.5 to 3 | Nc1c(C(=O)N2CCCCC2)sc2nc(-c3ccc4cccnc4c3)cnc12 [Example 39] | – | –
50 to 1000 | Nc1c(C(=O)N2CCC(F)(F)CC2)sc2nc(-c3ccccc3)cnc12 [Example 49] | – | –
50 to 1000 | CC1CN(C(=O)c2sc3nc(-c4ccccc4)cnc3c2N)CC(C)O1 (stereo not drawn) [Example 55] | – | –
0.5 to 3 | Nc1c(C(=O)N2CCCCC2)sc2nc(-c3cnc4ccccc4c3)cnc12 [Example 31] | – | –
0.5 to 3 | Nc1c(C(=O)N2CCCCC2)sc2nc(-c3cncc4ccccc34)cnc12 [Example 26] | – | 499
1000 to 5000 | Nc1c(C(=O)N2CCS(=O)(=O)CC2)sc2nc(-c3ccccc3)cnc12 [Example 53] | – | –
